Laboratory results reported in ChEMBL document CHEMBL1137236, “Synthesis and neuroprotective effects of serofendic acid analogues” (2006).

These molecules were tested on Cortical neurone (assay: Protective effect against L-glutamate-induced neurotoxicity in rat primary cortical neurons at 10 uM by trypan blue exclusion method).
Type: functional

SMILES | Activity [%]
C[S+]([O-])C[C@H]1[C@H]2CC[C@@]3(CC[C@@H]4C(C)(C)CCC[C@@]4(C)[C@@H]3C2)[C@@H]1O (stereo partly specified) | 13.1
COC(=O)[C@]1(C)CCC[C@@]2(C)[C@@H]3C[C@@H]4CC[C@@]3(CC[C@@H]21)[C@H](O)[C@H]4C[S+](C)[O-] (stereo partly specified) | 20.5
C[C@@]12CCC[C@@](C)(C(=O)O)[C@H]1CC[C@@]13CC[C@@H](C[C@@H]21)[C@H](CS(C)(=O)=O)[C@H]3O | 20
CSC[C@H]1[C@H]2CC[C@@]3(CC[C@H]4[C@@](C)(CCC[C@@]4(C)C(=O)O)[C@@H]3C2)[C@@H]1O | 39.8
C[S+]([O-])C[C@@H]1[C@H]2CC[C@@]3(CC[C@H]4[C@@](C)(CCC[C@@]4(C)C(=O)O)[C@@H]3C2)[C@H]1O (stereo partly specified) | 33.7
C[S+]([O-])C[C@H]1[C@H]2CC[C@@]3(CC[C@@H]4[C@](C)(CO)CCC[C@@]4(C)[C@@H]3C2)[C@@H]1O (stereo partly specified) | 7.79
C[S+]([O-])C[C@H]1[C@H]2CC[C@@]3(CC[C@H]4[C@@](C)(CCC[C@@]4(C)C(=O)O)[C@@H]3C2)[C@@H]1O (stereo partly specified) [SEROFENDIC ACID] | 45.3
C[S+]([O-])CC1=C[C@]23CC[C@H]1C[C@H]2[C@]1(C)CCC[C@@](C)(C(=O)O)[C@H]1CC3 (stereo partly specified) | 15.6
C[S+]([O-])C[C@@H]1C(=O)[C@]23CC[C@H]1C[C@H]2[C@]1(C)CCC[C@@](C)(C(=O)O)[C@H]1CC3 (stereo partly specified) | 41.5
C[S+]([O-])CC1C[C@]23CC[C@H]1C[C@H]2[C@]1(C)CCC[C@@](C)(C(=O)O)[C@H]1CC3 (stereo partly specified) | 18.1

What follows are molecules tested on Cortical neurone (assay: Protective effect against L-glutamate-induced neurotoxicity in rat primary cortical neurons at 1 uM by trypan blue exclusion method).
Type: functional

SMILES | Activity [%]
C[C@]12N[C@H](Cc3ccccc31)c1ccccc12.O=C(O)/C=C\C(=O)O [DIZOCILPINE MALEATE] | 80.7
